{
  "source": "paper PMC12048447",
  "about": "“PANTAX: a phase Ib clinical trial of the efflux pump inhibitor SCO-101 in combination with gemcitabine and nab-paclitaxel in non-resectable or metastatic pancreatic cancer” (Investigational New Drugs, 2025)",
  "key": {"[1]": {"biological_target": "T1, ABCB1 (MDR1) human ABC transporter (Homo sapiens, UniProt P08183)", "T1 construct": "purchased SOLVO Biotechnology", "T1 sequence (P08183 whole entry)": "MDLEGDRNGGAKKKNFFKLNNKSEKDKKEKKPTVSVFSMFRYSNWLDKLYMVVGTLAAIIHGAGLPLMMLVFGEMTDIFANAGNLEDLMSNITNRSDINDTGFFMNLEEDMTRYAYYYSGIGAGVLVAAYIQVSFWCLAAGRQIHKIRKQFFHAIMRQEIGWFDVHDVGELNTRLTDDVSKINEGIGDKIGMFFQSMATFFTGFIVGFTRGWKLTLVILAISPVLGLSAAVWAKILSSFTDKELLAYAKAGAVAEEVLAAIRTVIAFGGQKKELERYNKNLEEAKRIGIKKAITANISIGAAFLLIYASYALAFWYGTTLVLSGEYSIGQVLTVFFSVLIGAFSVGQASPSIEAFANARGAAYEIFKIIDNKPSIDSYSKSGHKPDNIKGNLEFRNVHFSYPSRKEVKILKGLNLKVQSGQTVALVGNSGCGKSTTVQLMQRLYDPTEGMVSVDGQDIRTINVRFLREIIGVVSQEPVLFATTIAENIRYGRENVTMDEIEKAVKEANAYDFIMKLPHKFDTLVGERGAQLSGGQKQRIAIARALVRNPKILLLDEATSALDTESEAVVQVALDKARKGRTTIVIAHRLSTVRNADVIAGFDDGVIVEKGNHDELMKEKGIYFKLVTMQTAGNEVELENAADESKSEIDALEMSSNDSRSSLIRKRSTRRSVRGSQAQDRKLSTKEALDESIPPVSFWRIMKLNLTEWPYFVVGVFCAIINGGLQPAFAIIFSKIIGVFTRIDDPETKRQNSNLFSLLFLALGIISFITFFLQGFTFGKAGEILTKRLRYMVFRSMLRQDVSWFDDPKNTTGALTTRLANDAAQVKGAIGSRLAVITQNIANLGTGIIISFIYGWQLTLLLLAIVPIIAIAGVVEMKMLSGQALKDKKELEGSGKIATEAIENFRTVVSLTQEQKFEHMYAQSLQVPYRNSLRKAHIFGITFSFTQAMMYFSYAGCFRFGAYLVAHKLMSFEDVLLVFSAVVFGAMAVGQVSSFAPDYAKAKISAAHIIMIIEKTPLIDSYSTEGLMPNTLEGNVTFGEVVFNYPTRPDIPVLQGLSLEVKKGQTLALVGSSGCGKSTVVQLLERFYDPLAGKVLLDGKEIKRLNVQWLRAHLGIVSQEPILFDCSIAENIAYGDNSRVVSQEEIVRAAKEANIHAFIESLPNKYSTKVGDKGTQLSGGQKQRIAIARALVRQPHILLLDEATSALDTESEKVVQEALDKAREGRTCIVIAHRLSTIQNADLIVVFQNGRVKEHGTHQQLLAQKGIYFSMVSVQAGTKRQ", "assay": "ABCB1 (MDR1) vesicular uptake inhibition in inside-out membrane vesicles", "assay_type": "biochemical", "conditions": "vesicular uptake of probe substrate, SCO-101 1.2-300 µM, with and without ATP; read-out: IC50, inhibition of MDR1/ABCB1 efflux transporter", "description": "Analysis of SCO-101 ABCB1 (MDR1) efflux transporter inhibition was evaluated by measuring the vesicular uptake of a probe substrate into inside-out membrane vesicles expressing ABCB1 (MDR1) human ABC transporter in the absence and presence of SCO-101 (1.2 –300 μM) with and without ATP. Transporter inhibition was observed as reduced level of vesicular uptake of the probe substrate in the presence of ATP. ABCB1 (MDR1) assay was conducted with reagents from PredivezTM VT Reagent Kit for MDR1/P-gp (SOLVO Biotechnology). Assays were conducted as per the manufacturer’s recommendation. The inhibition was evaluated by measuring the vesicular uptake of a probe substrate into inside-out membrane vesicles. Assays were conducted with or without ATP and in the absence and presence of SCO-101 at the indicated concentrations (1.2 –300μM)."}, "[2]": {"system": "patients with non-resectable or metastatic PDAC", "assay": "PANTAX phase Ib: efficacy (RECIST v1.1, PFS, OS, Ca 19-9)", "assay_type": "in vivo, human", "conditions": "SCO-101 with Gem and Nab", "text": "The PANTAX trial was a prospective, international multicenter phase Ib open-label, non-randomized, dose-escalation study aiming to determine the MTD, safety, and tolerability of SCO-101 when combined with Gem and Nab in patients with non-resectable or metastatic PDAC (Protocol nr. SCO101-002, EudraCT nr. 2020–002627-11; ClinicalTrials.gov identifier NCT04652206). Furthermore, the study aimed to establish the pharmacokinetic profile of SCO-101 in combination with Gem and Nab. ORR, clinical benefit rate (CBR), median progression free survival (mPFS), and mOS were included as secondary end points.\nTumor evaluation by CT and MRI scans were done every 8 weeks. Response was determined according to RECIST v 1.1 [21] by local assessment. ORR was determined as the percentage of evaluable patients experiencing a complete response (CR) or partial response (PR). CBR was determined as the percentage of evaluable patients experiencing response or stable disease (SD) for over 16 weeks. Date of study inclusion was the index date. For assessment of PFS, the date of PD was the date of imaging showing progression or date of last treatment in patients with deteriorating clinical condition. Patients not followed until progression were censored for PFS at the date of last follow-up. One patient was lost to follow-up for survival and was censored from OS analysis on the date of last visit. End of study was 6 months after the last patients last treatment visit."}, "[3]": {"system": "patients with colorectal cancer", "conditions": "SCO-101 with FOLFIRI, patients with prior progression on FOLFIRI, cited from earlier work"}, "PANC-1-Pac cells": {"system": "PANC-1-Pac cells", "assay": "MTT cell viability and ZIP synergy in paclitaxel-resistant PANC-1-Pac cells", "assay_type": "cell-based, human", "conditions": "72 h with drug + 72 h fresh media", "text": "(§1) A paclitaxel-sensitive human PDAC cell line, PANC-1, was obtained (ATCC, CRL-1469) and the derived paclitaxel-resistant PANC-1-Pac cell line was established by gradually increasing concentrations of paclitaxel over a period of 2–4 months. Standard MTT and crystal violet assays were applied to evaluate the effect of treatment with either combinations of SCO-101 and paclitaxel or SRPK1-inhibitor and paclitaxel. Details are presented in the Online Resource.\nStatistical analyses were mainly descriptive and included mean, median, range, and 95% CIs. Kaplan–Meier plots were constructed using Stata version 18 (StataCorp, 2023). In the preclinical study, the zero interaction potency (ZIP) synergy score was calculated as described by Yadav et al., to quantify the deviation from the expectation of zero interaction between drugs. A ZIP synergy score above 10 indicates synergy.\nas §1, with “line PANC-1” for “line, PANC-1,”, “2-4” for “2–4”, “SCO-101/paclitaxel” for “SCO-101 and paclitaxel”, “SRPK1 inhibitor/paclitaxel.” for “SRPK1-inhibitor and paclitaxel. Details are presented in the Online Resource.”\nThe selection began at 1 nM, increased to 2 nM and 4 nM, and ended at 8 nM. For each drug concentration the cells were kept for three passages. To evaluate the effect of the treatment either a Crystal Violet assay or MTT (3-(4,5-dimethylthiazol-2-yl)-2,5-diphenyltetrazolium bromide) assay were applied.\nThe MTT was conducted according to standard conditions. In short, cells were seeded at a density of 7,000 cells/well into a 96-well. One day after seeding, the cells were experimentally treated. Control conditions consisted of either growth medium (‘untreated’) or DMSO diluted in growth medium. All treatments were performed in triplicates. The cells were then kept in the CO2 incubator at 37 °C for 72 hours and plates were incubated with 100μl 1:10 MTT (0.5 mg/ml dissolved in phosphate buffered saline) for 3 hours and hereafter stopped using 100μl/well stop buffer (50g Sodium Dodecyl Sulphate, 245 mL MiliQ H2O, 5mL 1.0 N HCl was added to dissolve the formazan crystals overnight. Optical densities were measured at 570 and 670 nm.\nExperiments with 4 different concentrations of either SCO-101 or paclitaxel and their combinations were applied to test for synergy among these two compounds in both the PANC-1 parental and -Paclitaxel resistant cells. SCO-101 was applied in 10, 20, 40 and 50 µM whereas paclitaxel was tested in 5, 10, 15 and 20 nM for a total of 144 h, where drug was only present in the first 72h (sFig 2). The SRPK1 inhibitor SPHINX31 was tested at 0.1; 0.5; 1 and 5 µM. The SRPK1 inhibitor SRPIN was tested at 1; 5; 10 and 50 µM. Both inhibitors were tested in combination with 5, 10, 15 and 20 nM Paclitaxel.\nPANC-1-Pac cells treated with paclitaxel and SRPIN340 with four different concentrations of each for a total of 144 hours. Cell viability was evaluated by MTT assays and reported as percentage of untreated control (medium). Error bars indicate percentage standard deviation."}},
  "data": [
    {"compound": "O=C(Nc1cc(C(F)(F)F)cc(C(F)(F)F)c1)Nc1ccc(Br)cc1-c1nnn[nH]1", "note": "[SCO-101]", "values": [
      {"measurement": "IC50", "setting": "[1]", "value": 16.1, "unit": "µM"},
      {"measurement": "patients with reduction of serum Ca 19-9 of at least 25%", "setting": "[2]; 15 patients with elevated Ca 19-9 at treatment initiation", "value": 53, "unit": "%"},
      {"measurement": "objective response rate (ORR)", "setting": "[2]; 15 evaluable patients", "value": 6.7, "unit": "%"},
      {"measurement": "median progression-free survival (mPFS)", "setting": "[2]; CI 1.7-9.2 months", "value": 3.3, "unit": "months"},
      {"measurement": "median overall survival (mOS)", "setting": "[2]; CI 5.7-16 months", "value": 9.5, "unit": "months"},
      {"measurement": "clinical benefit rate (CBR)", "setting": "[2]; response or SD over 16 weeks, 15 evaluable patients", "value": 33, "unit": "%"},
      {"measurement": "tumor response", "setting": "[3]; 4 of 25 patients", "value": 16, "unit": "%"},
      {"measurement": "mOS", "setting": "[3]", "value": 10.4, "unit": "months"},
      {"measurement": "effect on PANC-1-Pac cells (cell viability), drug alone", "setting": "PANC-1-Pac cells", "value": "dose-dependent effect"},
      {"measurement": "ZIP synergy score with paclitaxel", "setting": "PANC-1-Pac cells; PANC-1-Pac cells, SCO-101 + paclitaxel, score above 10 indicates synergy", "value": 16.795}
    ]}
  ]
}
